The values below are quoted from earlier work in patent US7955790B2, “Skin substitutes with improved barrier function” (Stratatech Corporation, priority 2001, dated 2011).

Like-named read-outs stand apart in the source and are kept apart here.

The test system of series [1] is in vitro Cultures. Particulars: for Lipid Composition: substance added to in vitro cultures.
The subject of series [2] is in vitro Cultures. The note with it: substance added to in vitro cultures.

Take `O=C1O[C@H]([C@@H](O)CO)C(O)=C1O` [Vitamin C, ascorbic acid]: the “overall SC architecture” value in the series with in vitro Cultures [1] (skin equivalent cultures, electron microscopy) is on record as “improved”. Also, the “Lipid Composition” value is on record as “Major” with in vitro Cultures [1] and “improved” with in vitro Cultures [1] (listed as vitamin C).
For Estrogen, in the series with in vitro Cultures [2], the “Barrier Function” value was “Accelerates”.
Consider Vitamin D, for which the “Barrier Function” value in the series on in vitro Cultures [2] (listed as vitamin D) is given as “improvements in some studies”.
In the case of Vitamin E, the “Lipid Composition” value in the series with in vitro Cultures [1] is reported as “No effect”.
With “EGF: epidermal growth factor added to in vitro cultures”, the “Lipid Composition” value in the series on in vitro Cultures [1] is recorded as “High triglycerides”.
